# Where two headings read alike, the source gives them in different places.
# Assays:
# Assay type in all cases: in vivo
# Plutella xylostella = assay: whole plant or invertebrate; conditions: for mortality at 500 ppm: Plutella xylostella, read-out: Plutella xylostella Mortality (%) 500 ppm; for Plutella xylostella Mortality (%) / Plutella xylostella Mortality (%) 500 ppm: 500 ppm, 2nd-instar larvae, leaf immersion feeding
# Method in brief: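 Cabbage leaf discs dipped 5 s in compound at 500 ppm (0.05% Tween-80 aqueous), air-dried, fed to about 35 2nd-instar larvae at 28° C., triplicate. Dead larvae counted after 24 h; mortality (%) corrected against Tween-80 control.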
# Spodoptera exigua = assay: whole plant or invertebrate; conditions: for mortality at 500 ppm: Spodoptera exigua, 24 h, read-out: Spodoptera exigua Mortality (%) 500 ppm; for Spodoptera exigua Mortality (%) / Spodoptera exigua Mortality (%) 500 ppm: 500 ppm, 2nd-instar larvae, leaf immersion feeding; for Spodoptera exigua Mortality (%) 500 ppm: 24 hours
# Method in brief: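 Cabbage leaf discs dipped 5 s in 500 ppm compound (0.05% Tween-80 aqueous), air-dried, fed to about 35 2nd-instar larvae at 28° C, three replicates. Deaths counted at 24 h; mortality corrected against Tween-80 control.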
# Aphis craccivora = assay: whole plant or invertebrate; conditions: for mortality at 500 ppm: Aphis craccivora, 24 h, read-out: Aphis craccivora Mortality (%) 500 ppm; for Aphis craccivora Mortality (%) / Aphis craccivora Mortality (%) 500 ppm: 500 ppm, wingless adults; for Aphis craccivora Mortality (%): immersion 5 seconds, counted after 24 hours; for Aphis craccivora Mortality (%) 500 ppm: impregnation method, 24 hours
# Method in brief: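 Wingless adults feeding on bean sprouts were dipped with the sprouts for 5 s in 500 ppm compound in aqueous 0.05% Tween-80, air-dried, then held at 23° C. Dead aphids counted after 24 h, triplicate, with 0.05% Tween-80 as control. Mortality (%) = (control live − treated live)/control live × 100.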
# Solenopsis invicta = assay: whole plant or invertebrate; conditions: water test tube poison-feeding; for mortality at 100 ppm: Solenopsis invicta; for Solenopsis invicta Mortality (%) 24 h / Solenopsis invicta Mortality (%) 72 h / Solenopsis invicta Mortality (%) 100 ppm 24 h / Solenopsis invicta Mortality (%) 100 ppm 72 h: 100 ppm
# Method in brief: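 Fire ants fed compound by water test-tube poison-feeding at 100 ppm in aqueous 0.05% Tween-80/5% honey (from 10 g/L DMSO stock), kept at 25 °C. Live and dead ants counted at 24 and 72 h; mortality (%) calculated relative to live ants in the untreated control.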
# Bombyx mori L. = assay: Toxicity test on 2nd-instar larvae of Bombyx mori L., leaf immersion feeding method; conditions: 1000 ppm, 24 hours
# Protocol: (1) Toxicity Test on 2nd-Instar Larvae of Bombyx mori L.
# Bombyx mori L. is an important economic insect sensitive to pesticides in an agricultural ecosystem, and is also one of the non-target organisms of environmental ecology listed in pesticide registration of China. The 2nd-instar larvae of Bombyx mori L. were used as test objects and tested by using a leaf immersion feeding method.
# Operation process: Samples were weighed accurately, and respectively added with 200 μL of dimethyl sulfoxide to prepare 10 g/L mother liquor which was diluted into a concentration of 1000 ppm with an aqueous solution containing 0.05% of Tween-80 during the test. Young cotyledons of mulberries were collected, washed and air-dried, immersed in a liquid medicine, taken out after 5 seconds, naturally air-dryed, and then transferred into a clean vessel. About 35 2nd -instar larvae of Bombyx mori L. were put into the vessel and fed at a constant temperature of 25° C. Each concentration was repeated 3 times, and an aqueous solution containing 0.05% of Tween-80 was used as a control group. After being treated for 24 hours, a number of dead Bombyx mori L. was counted, and a mortality (%) was calculated according to a formula that mortality (%)=(number of live larvae in the control group −number of treated live larvae)/number of live larvae in the control group * 100%.
# Apis cernan = assay: Toxicity test on adult worker bees of Apis cernan, small beaker method; conditions: 500 ppm, 48 hours
# Protocol: (2) Toxicity Test on Adult Worker Bees of Apis cernan.
# Adult worker bees of Apis cernan having the same size were selected for test. The worker bees were collected from beekeeping boxes in the daystart of the test day and tested by using a small beaker method.
# Operation process: A small amount of absorbent cotton was put into a 5 mL small beaker, 5 mL of a test liquid medicine (a concentration of 500 ppm) was dropped into the absorbent cotton, and stirred gently to make the absorbent cotton completely wet but not leached obviously, then the small beaker was put into a 500 mL large beaker, then 15 worker bees were put into the large beaker, and finally the large beaker was sealed with gauze. After treatment, the large beaker was placed in a dark room of an artificial climate box. After taking the medicine for 48 hours, a number of live and dead worker bees were investigated.
# [1] = 24 h, read-out: Solenopsis invicta Mortality (%) 100 ppm 24 h, 100 ppm, 24 h
# [2] = 72 h, read-out: Solenopsis invicta Mortality (%) 100 ppm 72 h, 100 ppm, 72 h
Structure (SMILES),mortality at 500 ppm (Plutella xylostella),mortality at 500 ppm (Spodoptera exigua),mortality at 500 ppm (Aphis craccivora),mortality at 100 ppm (Solenopsis invicta; [1]),mortality at 100 ppm (Solenopsis invicta; [2]),Plutella xylostella Mortality (%) (Plutella xylostella),Spodoptera exigua Mortality (%) (Spodoptera exigua),Aphis craccivora Mortality (%) (Aphis craccivora),Solenopsis invicta Mortality (%) 24 h (Solenopsis invicta; 24 h),Solenopsis invicta Mortality (%) 72 h (Solenopsis invicta; 72 h),other results
C=CC1(C=C)Nc2c(-c3cc(C)sc3C)c(CC)nn2-c2c(Cl)cc(C(F)(F)F)cc21 [Compound C62],80%,85%,97%,27%,100%,,,,,,Toxicity determination Bombyx mori L. Mortality (%) (Bombyx mori L.): 10%; Toxicity determination Apis cernan Mortality (%) (Apis cernan): 11%
CC(=O)c1nn2c(c1[S+](C)[O-])NC(CC#N)(C(=O)O)c1cc(C(F)(F)F)cc(Cl)c1-2 (centres unmarked) [Compound C43],86%,89%,95%,18%,80%,,,,,,Toxicity determination Bombyx mori L. Mortality (%) (Bombyx mori L.): 0%; Toxicity determination Apis cernan Mortality (%) (Apis cernan): 4%
COC(=O)C1(CC(=O)OCC(F)F)Nc2c([S+]([O-])C(F)(F)F)c(C#N)nn2-c2cc(C(F)(F)F)cc(Cl)c21 (centres unmarked) [c-20],,,,,,100%,100%,100%,14%,100%,
COC(=O)C1(CC(=O)OCC(F)F)Nc2c([S+]([O-])C(F)(F)F)c(C#N)nn2-c2c(C(F)(F)F)ccc(Cl)c21 (centres unmarked) [e-4],,,,,,100%,100%,100%,32%,100%,
C=CC1(C(F)(F)F)Nc2c(Br)c(C#N)nn2-c2c(Cl)cc(C(F)(F)F)cc21 (centres unmarked) [Compound C7],100%,100%,100%,38%,100%,,,,,,
COC(=O)CC1Nc2c([S+]([O-])C(F)(F)F)c(C(F)(F)F)nn2-c2cncc(Cl)c21 (centres unmarked) [b-88],,,,,,100%,100%,100%,25%,100%,
N#Cc1nn2c(c1[S+]([O-])C(F)(F)F)NC(CCCl)(C(=O)C(F)(F)F)c1c(Cl)cc(C(F)(F)F)cc1-2 (centres unmarked) [c-42],,,,,,86%,80%,100%,20%,97%,
CNC(=O)CC1Nc2c(OC(F)(F)F)c(C#N)nn2-c2c(Cl)cc(C(F)(F)F)cc21 (stereo not drawn) [d-133],,,,,,70%,86%,100%,21%,95%,
CC(C)C1Nc2c(OC(F)(F)F)c(C#N)nn2-c2cncc(Cl)c21 (centres unmarked) [b-131],,,,,,95%,95%,100%,11%,100%,
N#CCC1(Cl)Nc2c([S+]([O-])C(F)(F)F)c(C#N)nn2-c2cncc(Cl)c21 (centres unmarked) [b-47],,,,,,95%,85%,100%,18%,90%,
CC(=O)c1nn2c(c1[S+](C)[O-])NC(CBr)(CC#N)c1cc(C(F)(F)F)cc(Cl)c1-2 (centres unmarked) [Compound C41],89%,94%,100%,19%,90%,,,,,,
CC(=O)CC1(C(=O)C(F)(F)F)Nc2c([S+]([O-])C(F)(F)F)c(C#N)nn2-c2ncc(C(F)(F)F)cc21 (centres unmarked) [a-26],,,,,,,,,,,Plutella xylostella Mortality (%) 500 ppm (Plutella xylostella): 100%; Spodoptera exigua Mortality (%) 500 ppm (Spodoptera exigua): 100%; Aphis craccivora Mortality (%) 500 ppm (Aphis craccivora): 100%; Solenopsis invicta Mortality (%) 100 ppm 24 h (Solenopsis invicta; 24 h): 34%; Solenopsis invicta Mortality (%) 100 ppm 72 h (Solenopsis invicta; 72 h): 100%
COC(=O)CC1(C(=O)C(F)(F)F)Nc2c([S+]([O-])C(F)(F)F)c(C#N)nn2-c2cncc(Cl)c21 (centres unmarked) [b-28],,,,,,100%,99%,100%,16%,100%,
N#Cc1nn2c(c1[S+]([O-])C(F)(F)F)NC(C#N)(CC(=O)C(F)(F)F)c1cc(C(F)(F)F)cnc1-2 (centres unmarked) [a-57],,,,,,,,,,,Plutella xylostella Mortality (%) 500 ppm (Plutella xylostella): 100%; Spodoptera exigua Mortality (%) 500 ppm (Spodoptera exigua): 100%; Aphis craccivora Mortality (%) 500 ppm (Aphis craccivora): 100%; Solenopsis invicta Mortality (%) 100 ppm 24 h (Solenopsis invicta; 24 h): 24%; Solenopsis invicta Mortality (%) 100 ppm 72 h (Solenopsis invicta; 72 h): 100%
N#Cc1nn2c(c1[S+]([O-])C(F)(F)F)NC(C#N)c1cc(C(F)(F)F)cc(Cl)c1-2 (stereo not drawn) [d-82],,,,,,95%,89%,100%,25%,90%,
N#Cc1nn2c(c1[S+]([O-])C(F)(F)F)NC(CC(F)(F)F)c1cc(C(F)(F)F)cc(Cl)c1-2 (stereo not drawn) [d-85],,,,,,100%,100%,100%,30%,100%,
CC(=O)C1(CC(=O)C(F)(F)F)Nc2c([S+]([O-])C(F)(F)F)c(C#N)nn2-c2c(Cl)cc(C(F)(F)F)cc21 (stereo not drawn) [d-49],,,,,,100%,100%,100%,29%,100%,
CC[S+]([O-])c1c(C(F)(F)F)nn2c1NC(C(F)(F)F)(C(F)(F)F)c1ccc(N)cc1-2 (centres unmarked) [Compound A14],100%,90%,100%,26%,93%,,,,,,
COC(=O)CC1(C(=O)OC)Nc2c([S+]([O-])C(F)(F)F)c(C(C)=O)nn2-c2c(Cl)cc(C(F)(F)F)cc21 (stereo not drawn) [d-8],,,,,,85%,82%,90%,15%,65%,
COC(=O)C1(CC(C)=O)Nc2c([S+]([O-])C(F)(F)F)c(C#N)nn2-c2c(Cl)cc(C(F)(F)F)cc21 (stereo not drawn) [d-33],,,,,,100%,99%,100%,26%,100%,
C=CC1Nc2c(Br)c(C#N)nn2-c2c(Cl)cc(C(F)(F)F)cc21 (centres unmarked) [Compound C8],91%,85%,95%,36%,92%,,,,,,
N#CCC1(C(F)(F)F)Nc2c([S+]([O-])C(F)(F)F)c(C#N)nn2-c2ncc(C(F)(F)F)cc21 (centres unmarked) [a-59],,,,,,,,,,,Plutella xylostella Mortality (%) 500 ppm (Plutella xylostella): 96%; Spodoptera exigua Mortality (%) 500 ppm (Spodoptera exigua): 91%; Aphis craccivora Mortality (%) 500 ppm (Aphis craccivora): 100%; Solenopsis invicta Mortality (%) 100 ppm 24 h (Solenopsis invicta; 24 h): 28%; Solenopsis invicta Mortality (%) 100 ppm 72 h (Solenopsis invicta; 72 h): 97%
COC(=O)CC1(C(=O)OC)Nc2c([S+](C)[O-])c(C(C)=O)nn2-c2c(Cl)cc(C(F)(F)F)cc21 (centres unmarked) [Compound C48],76%,85%,79%,26%,86%,,,,,,
